# Test results as given in patent US6537988B2, “Synergistic methods and compositions for treating cancer” (Bristol-Myers Squibb Company, priority 2000, dated 2003).
# “Also recorded” adds a separate entry of the source. Where two headings read alike, the source gives them in different places.
# Columns and labels:
# [1] = test system: HCT-116 human colon carcinoma cells; assay: Clonogenic cell colony-formation assay, stationary vs log phase cells; settings: for fold less sensitive: cells in exponential growth (Day 2) vs stationary phase (Day 8) / fold more sensitive: cells in exponential growth (Day 2) vs stationary phase (Day 8): HCT-116 in vitro, figure legends; for cytotoxicity against non-proliferating stationary cells: HCT-116, paclitaxel at concentrations as high as 162 nM
# Method: (§1) At the end of a 16 h drug exposure, monolayer cell cultures were dissociated by exposing the cells to 0.05% trypsin for 5 min at 37° C. Cells were resuspended in complete media (containing 10% FBS), counted with a Coulter Channelyzer, diluted and plated with 5 replicates per dilution, into plastic tissue culture petri dishes. The cells were incubated in a humidified atmosphere for 10 days at 37° C. Cell colonies were stained with crystal violet and those with >50 cells per colony were scored.
# [2] = test system: A2780 human ovarian cancer cells; assay: Colony formation of A2780 cells, CDK inhibitor plus Compound 2; assay type: cell-based; settings: 1.5 μM, 4 hour treatment
# [3] = Maximum tolerated dose / regimen in tumor-bearing mice; assay type: in vivo, nude mice
# Description: The maximum tolerated dose (MTD) is defined as the dose level immediately above which excessive toxicity (i.e. more than one death) occurred. […] Activity is described at the OD.
# [4] = test system: Her-1 activated SAL-2 cancer cell line; assay type: cell-based; settings: 20 hours exposure
# Method: FIG. 18A: Clonogenic survival of the SAL-2 cell line following exposure to paclitaxel for 20 hours at the indicated concentrations.
# [5] = test system: advance HCT116 human colon carcinoma; settings: dose 20 mg/kg/inj, IV, Q7D × 4
# Method: Paclitaxel was administered IV at 20 mg/kg/inj, Q7D×4.
# (§2) Tumor response was determined by measurement of tumors with a caliper twice a week until the tumors reached a predetermined “target” size of 0.5 or 1.0 g. Tumor weights (mg) were estimated from the formula:
# (§3) Tumor response end-point was expressed in terms of tumor growth delay (T-C value), defined as the difference in time (days) required for the treated tumors (T) to reach a predetermined target size compared to those of the control group (C).
# (§4) A tumor is defined as “cured” when there is no detectable disease at the time of study termination (Day >75 days post-tumor implantation); the interval between study termination and the end of drug treatment always exceeded 10 times the volume doubling time of any particular tumor type.
# [6] = test system: HCT116 human colon carcinoma; settings: Compound 2 125 mpk 24 h iv infusion; paclitaxel 24 mg/kg iv; alone or combined
# Method: as §2, §3
# [7] = test system: MCF-7 estrogen-dependent human breast carcinoma; assay: MCF-7 xenograft, tamoxifen plus Compound 2; assay type: in vivo, nude mice; settings: tamoxifen 40 mpk PO Q2D×14, Compound 2 po 100 mpk qd×10, two courses
# Method: Tamoxifen was administered PO, Q2D×14.
# The majority of human breast cancers require estrogen for growth and tumor progression (estrogen-dependent). […] In order to assess the efficacy of the combined anti-cancer agents of the invention in a human breast cancer model, MCF-7 xenografts were grown in nude mice and treated as described herein.
# [8] = test system: HCTVM46 human colon carcinoma; assay: Multidrug-resistant HCT/VM46 xenograft (FIGS. 13, 14); settings: single agents or Compound 1 followed 24 hr later with Compound 2
# Method: as §2, §3, §4
# [9] = test system: HCT-116 human colon carcinoma cells
# Method: as §1
# [10] = test system: advanced HCT116 human colon carcinoma; settings: dose 30 mg/kg/inj; IV, Q2D × 5
# Method: as §2, §3
# [11] = test system: HT-29 human colon carcinoma; assay: Advanced HT-29 xenograft, gemcitabine plus Compound 2; assay type: in vivo, nude mice
# Description: The agent primarily kills cells undergoing DNA synthesis (S-phase) and also blocks the progression of cells through the G1/S-phase boundary.
# [12] = IC90 Log / IC90 Stationary, HCT116
# [13] = read-out: IC90 Log (converted), log phase (proliferating) HCT116 cells, 16 h drug exposure
# [14] = read-out: IC90 Stationary, stationary phase (non-proliferating, Day 8) HCT116 cells, 16 h drug exposure
# [15] = read-out: IC90 Log (converted), log phase (proliferating) HCT116 cells
# [16] = read-out: IC90 Stationary, stationary phase (non-proliferating) HCT116 cells
compound,measurement,setting,value
"N#Cc1ccc2c(c1)CN(S(=O)(=O)N1CCCCC1)[C@H](Cc1ccccc1)CN2Cc1c[nH]cn1 [Compound 6, (R)-7-cyano-2,3,4,5-tetrahydro-1-(1H-imidazol-4-ylmethyl)-3-(phenylmethyl)-4-(1-piperidinylsulfonyl)-1H-1,4-benzodiazepine]",fold less sensitive: cells in exponential growth (Day 2) vs stationary phase (Day 8),[1],~67 fold
same,Non-proliferative cells selectivity ratio (fold),[1]; [12],64.2 fold
same,IC90,[1]; [13],66.8 µM
same,IC90,[1]; [14],1.04 µM
"N#Cc1ccc2c(c1)CN(S(=O)(=O)c1ccc(Br)s1)[C@H](Cc1ccccc1)CN2Cc1c[nH]cn1 [Compound 5, (R)-4-[(5-bromo-2-thienyl)sulfonyl]-7-cyano-2,3,4,5-tetrahydro-1-(1H-imidazol-4-ylmethyl)-3-(phenylmethyl)-1H-1,4-benzodiazepine]",Non-proliferative cells selectivity ratio (fold),[1]; [12],78.4 fold
same,IC90,[1]; [13],84.7 µM
same,IC90,[1]; [14],1.08 µM
"CC(C)(C)c1cnc(CSc2cnc(NC(=O)C3CCNCC3)s2)o1 [Compound 9, N-[5-[[[5-(1,1-dimethylethyl)-2-oxazolyl]methyl]thio]-2-thiazolyl]-4-piperidinecarboxamide]",effect of single agent,[2],no effect dose
"CC(O)(CS(=O)(=O)c1ccc(F)cc1)C(=O)Nc1ccc(C#N)c(C(F)(F)F)c1 (centres unmarked) [Casodex®, bicalutamide]",maximum tolerated doses and regimens,"[3]; Pca-2b-AI study, Compound 2 po q1D×10, Casodex® po q1D×4",150 mpk
"COc1ccc(S(=O)(=O)N2Cc3cc(C#N)ccc3N(Cc3c[nH]cn3)C[C@H]2Cc2ccccc2)cc1 [Compound 7, (R)-7-cyano-2,3,4,5-tetrahydro-1-(1H-imidazol-4-ylmethyl)-4-[(4-methoxyphenyl)sulfonyl]-3-(phenylmethyl)-1H-1,4-benzodiazepine]",Non-proliferative cells selectivity ratio (fold),[1]; [12],2.7 fold
same,IC90,[1]; [13],26 µM
same,IC90,[1]; [14],9.6 µM
"O=c1[nH]cc(F)c(=O)[nH]1 [5-Fluorouracil, 5-fluorouracil]",cytotoxicity against non-proliferating stationary cells,[1],essentially ineffective
same,Non-proliferative cells selectivity ratio (fold),[1]; [12],<0.03 fold
same,IC90 Log,[1]; log phase HCT116 cells,>162 μg/ml
same,IC90 Stationary,[1]; stationary phase HCT116 cells,4.6 µg/mL
"CC(=O)O[C@H]1C(=O)[C@@]2(C)[C@H]([C@H](OC(=O)c3ccccc3)[C@]3(O)C[C@H](OC(=O)[C@H](O)[C@@H](NC(=O)c4ccccc4)c4ccccc4)C(C)=C1C3(C)C)[C@]1(OC(C)=O)CO[C@@H]1C[C@@H]2O [Paclitaxel, paclitaxel]",sensitivity of exponentially growing SAL2 cells to single agent,[4],relatively resistant
same,Tumor Response CR (%),[5],0%
same,Tumor Response LCK,[5],2.5
same,Tumor Response PR (%),[5],20%
same,Tumor Response Cures (%),[5]; Day 77,0%
same,log cell kill,[6],0.6 LCK
same,Non-proliferative cells selectivity ratio (fold),[1],<0.1 fold
same,cytotoxicity against non-proliferating stationary cells,[1],essentially ineffective; also recorded: completely non-toxic
same,fold more sensitive: cells in exponential growth (Day 2) vs stationary phase (Day 8),[1],> 10 fold
same,IC90,[1]; [15],0.0178 µM
same,IC90,[1]; [16],> 0.162 µM
same,maximum tolerated regimen,"[3]; Pat-7 study, paclitaxel iv q3d×3, Compound 2 ip q3d×3",36 mg/kg
"COCCCS(=O)(=O)N1Cc2cc(C#N)ccc2N(Cc2c[nH]cn2)C[C@H]1Cc1ccccc1 [Compound 4, (R)-4-(3-methoxypropylsulfonyl)-7-cyano-2,3,4,5-tetrahydro-1-(1H-imidazol-4-ylmethyl)-3-(phenylmethyl)-1H-1,4-benzodiazepine]",fold less sensitive: cells in exponential growth (Day 2) vs stationary phase (Day 8),[1],~91.2 fold
same,Non-proliferative cells selectivity ratio (fold),[1]; [12],86.9 fold
same,IC90,[1]; [13],91.2 µM
same,IC90,[1]; [14],1.05 µM
"CCCCS(=O)(=O)N1Cc2cc(C#N)ccc2N(Cc2c[nH]cn2)C[C@H]1Cc1ccccc1 [Compound 3, (R)-4-(butylsulfonyl)-7-cyano-2,3,4,5-tetrahydro-1-(1H-imidazol-4-ylmethyl)-3-(phenylmethyl)-1H-1,4-benzodiazepine]",Non-proliferative cells selectivity ratio (fold),[1]; [12],181.0 fold
same,IC90,[1]; [13],65 µM
same,IC90,[1]; [14],0.36 µM
CC/C(=C(\c1ccccc1)c1ccc(OCCN(C)C)cc1)c1ccccc1 [Tamoxifen],tumor remission / cures,[7],no cures were observed
same,effect on tumor growth,[7]; alone or combined,markedly more active
"C/C(=C\c1csc(C)n1)[C@@H]1C[C@@H]2O[C@]2(C)CCC[C@H](C)[C@H](O)[C@@H](C)C(=O)C(C)(C)[C@@H](O)CC(=O)N1 (relative stereo) [Compound 1, [1S-[1R*,3R*(E),7R*,10S*,11R*,12R*,16S*]]-7,11-dihydroxy-8,8,10,12,16-pentamethyl-3-[1-methyl-2-(2-methyl-4-thiazolyl)ethenyl]-4-aza-17-oxabicyclo[14.1.0]heptadecane-5,9-dione]",tumor cure,[8],did not induce tumor cure
same,log cell kill,"[8]; maximum tolerated regimens, q4d×3",1.6 LCK
same,maximum tolerated regimen,"[3]; HCTVM46 study FIG. 13, single agents, q4d×3",15 mg/kg
same,maximum tolerated regimen,"[3]; HCTVM46 study FIG. 14, Compound 1 iv q4d×3, Compound 2 ip q4d×3, single agents",10 mg/kg
"C/C(=C\c1csc(C)n1)[C@@H]1C[C@@H]2O[C@]2(C)CCC[C@H](C)[C@H](O)[C@@H](C)C(=O)C(C)(C)[C@@H](O)CC(=O)O1 [Epothilone B, epothilone B]",cytotoxicity against non-proliferating stationary cells,[9],essentially ineffective
same,fold more sensitive: cells in exponential growth (Day 2) vs stationary phase (Day 8),[1],> 83 fold
same,Non-proliferative cells selectivity ratio (fold),[1]; [12],<0.01 fold
same,IC90,[1]; [15],0.0013 µM
same,IC90,[1]; [16],> 0.108 µM
CCc1c2c(nc3ccc(OC(=O)N4CCC(N5CCCCC5)CC4)cc13)-c1cc3c(c(=O)n1C2)COC(=O)[C@]3(O)CC [CPT-11],Tumor Response CR (%),[10],0%
same,Tumor Response LCK,[10],1.5
same,Tumor Response PR (%),[10],50%
same,MTD,"[3]; CPT-11 IV (Q2D × 5), HCT116 study",~30 mg/kg/inj
Nc1ccn([C@@H]2O[C@H](CO)[C@@H](O)C2(F)F)c(=O)n1 [Gemcitabine],response rate,[11]; single agent gemcitabine 6 mg/kg/inj (so in the source),25%
same,response rate,[11]; single agent gemcitabine 24 mg/kg/inj,0%
same,MTD,"[3]; gemcitabine IV, Q2D×4, HT-29 study",36 mg/kg/inj
